From patent US9408889B2, “Fusion peptide designed to reduce plaque bacteria and yeast in the oral cavity” (RUTGERS, THE STATE UNIVERSITY OF NEW JERSEY, priority 2011, dated 2016)

How the values were obtained:
Candida = assay: Two hour cell killing assay with supernatants from salivary-coated HAP or BECs; type: cell-based; conditions: sHAP incubated with peptide, washed, 1 hour release; 2 hour cell killing assay
Description: The procedures depicted in FIG. 5 were carried out with two LF fusion peptides (ST-LF and PAK-LF). Salivary-coated HAP was incubated with ST-LF peptide for 30 minutes and then washed with PBS and the supernatant tested. Fresh PBS was added, and the salivary-coated HAP was further incubated for 1 hour. The salivary-coated HAP was again rinsed and the supernatant solution was then tested for anti-candidal activity. The results are depicted in FIG. 6.

[1] = previously demonstrated; cited from earlier work
oral bacteria = conditions: bacteria grown in a broth media; cited from earlier work
bacteria = conditions: cited from earlier work
Streptococcus mutans = assay: Killing of Streptococcus mutans by lactoferrin variants and peptide; type: cell-based; conditions: synthetic peptide
Text: Caries is the single most common chronic childhood disease, five times more common than asthma. Over 70% of children […] have cavities. Over 108 million Americans lack dental health insurance so that treatment of this infection is lacking. S. mutans is considered one of the microbes most associated with dental decay.
Others have shown that lactoferrin peptides have antimicrobial activity, but no one to date has shown that the antibacterial activity derived from this peptide is useful against organisms in the oral cavity. We have also determined that the peptide will have limited usefulness in the oral cavity unless it is linked to something that will allow the peptide to bind to a surface in the oral cavity. A fusion peptide comprising lactoferrin and statherin was previously developed, wherein the lactoferrin portion provided antimicrobial activity while the statherin portion enabled the fusion peptide to adhere to the tooth surface. […]
Lactoferrin (Lf or LF) is a multifunctional protein that is found in mammary secretion, tears and saliva and in the gastrointestinal tract. […] Further we then determined that pure lactoferrin would have limited usefulness in the oral cavity unless it was linked to something that would allow it to bind to the oral cavity.

Q: What does the source list for “ST-LF: DDDEEKFQWQRNMRKVR, statherin-lactoferrin fusion peptide of PCT/US08/51165 (ST-LF fusion peptide)”?
A: anti-candidal activity of supernatant from salivary-coated HAP (Candida): no inhibition of Candida; binding to tooth enamel surfaces [1]: bind to tooth enamel surfaces

Q: With Penicillin as the substance, how does the “effective concentration against oral bacteria” value (oral bacteria) read?
A: The value was 1 µg/mL.

Q: And the “adherence of bacteria to drug-treated, washed SHA” value (bacteria)?
A: Its value is “no effect”.

Q: Which “killing of Streptococcus mutans” value (Streptococcus mutans) does the source give for “LF: FQWQRNMRKVR, lactoferrin peptide, lys form (listed as Homo sapiens)” here?
A: Its value is “kills Streptococcus mutans”.
